Values after ≈ are worked out from the molar mass of the structure shown. Active and inactive are the calls of the source.

Drawing on ChEMBL document CHEMBL1133262, “Studies on the novel anti-staphyloccal compound nematophin” (2000), this text covers MIC for 16 compounds.

Test [1] relates to Bacillus subtilis. The test is described as follows: Minimum inhibitory concentration against Bacillus subtilis. It is filed as functional.
Test [2] has as its system Staphylococcus aureus. The test is described as follows: Minimum inhibitory concentration against methicillin sensitive organism Staphylococcus aureus 853. It is filed as functional.
Test [3] concerns Staphylococcus aureus. The test is described as follows: Minimum inhibitory concentration against methicillin resistant organism Staphylococcus aureus COL. The class given is functional.
Test [4] concerns Staphylococcus aureus. The test is described as follows: Activity against methicillin sensitive organism Staphylococcus aureus 853 in presence of serum. The class given is functional, organism-based.

With `CCC(C)C(=O)C(=O)NCCc1c(-c2cccnc2)[nH]c2ccccc12` (stereo unspecified), the MIC in test [1] was over 32 µg/mL; in test [2] it was 0.5 µg/mL (≈ 1.43 µM); in test [3] it was 4 µg/mL (≈ 11.4 µM). In addition, the MIC result in test [4] was “inactive”.
`CCC(C)C(=O)C(=O)NCCn1c[n+](C)c2ccccc21.[I-]` (stereo unspecified): the MIC in test [1] and in test [2] was over 32 µg/mL in each case. Also, the MIC entry in test [4] was “inactive”.
With `O=C1c2ccccc2C(=O)N1CCn1cnc2ccccc21`, the MIC entry in test [4] was “inactive”.
On the same count and under the same terms, the result for `O=[N+]([O-])c1ccccc1F` reads “inactive”; that for `O=C1c2ccccc2C(=O)N1CCc1c(-c2cccnc2)[nH]c2ccccc12`, “inactive”.
Consider `CCC(C)C(=O)C(=O)NCCc1c[nH]c2ccccc12` (stereo unspecified), for which the MIC in test [1] is over 32 µg/mL; in test [2] it was 2 µg/mL (≈ 7.34 µM); in test [3] it was 16 µg/mL (≈ 58.7 µM). Further, in test [4], the MIC entry is “inactive”.
In the same order, the values of `CCC(C)C(=O)C(=O)NCCn1c(-c2ccccc2)nc2ccccc21` (stereo unspecified) are over 32 µg/mL, 8 µg/mL (≈ 22.9 µM), 16 µg/mL (≈ 45.8 µM) and “inactive”.
`CCC(C)C(=O)C(=O)NCCc1cn(Cc2ccccc2)c2ccccc12` (stereo unspecified): the MIC in test [1] was over 32 µg/mL; in test [2], 2 µg/mL (≈ 5.52 µM); in test [3], over 32 µg/mL. The MIC result in test [4] was “inactive”.
`CCC(C)C(=O)C(=O)NCCc1c(-c2ccc[n+](C)c2)[nH]c2ccccc12.[I-]` (stereo unspecified): the MIC in test [1] and in test [2] was over 32 µg/mL each time. In test [4], the MIC result was “inactive”.
Consider `O=C1c2ccccc2C(=O)N1CCc1c[nH]c2ccccc12`, for which, in test [4], the MIC entry was “inactive”.
On to `O=C1c2ccccc2C(=O)N1CCc1c(-c2ccccc2)[nH]c2ccccc12`, for which the MIC entry in test [4] was “inactive”.
Consider `CCC(C)C(=O)C(=O)NCCn1cnc2ccccc21` (stereo unspecified), for which the MIC in test [1] and in test [2] was over 32 µg/mL in each case. Also, the MIC result in test [4] was “inactive”.
For the compound `CCC(C)C(=O)C(=O)NCCn1c(-c2ccccc2)[n+](C)c2ccccc21.[I-]` (stereo unspecified), the MIC in test [1] and in test [2] was over 32 µg/mL in each case. The MIC entry in test [4] was “inactive”.
With `CCC(C)C(=O)C(=O)NCCc1c(-c2ccccc2)[nH]c2ccccc12` (stereo unspecified), the MIC was 8 µg/mL (≈ 23 µM) in test [1], under 0.03 µg/mL in test [2] and 0.06 µg/mL (≈ 0.172 µM) in test [3]. The MIC entry in test [4] was “inactive”.
For the compound `CCC(C)C(=O)C(=O)NCCc1c(-c2ccc[n+](CC(N)=O)c2)[nH]c2ccccc12.[I-]` (stereo unspecified), the MIC in test [1] and in test [2] was over 32 µg/mL each time. Further, the MIC result in test [4] is “inactive”.
For the compound `O=C1c2ccccc2C(=O)N1CCn1c(-c2ccccc2)nc2ccccc21`, the MIC result in test [4] is “inactive”.

Usually MIC stands for the smallest concentration in the dilution series that meets the test's criterion for growth inhibition.
